From patent publication US20180170904A1, “PYRIDIN-3-YL ACETIC ACID DERIVATIVES AS INHIBITORS OF HUMAN IMMUNODEFICIENCY VIRUS REPLICATION” (priority 2015, published 2018)

test system: NL-RLuc virus (recombinant NL4-3 proviral clone with Renilla Luciferase gene); assay: Inhibition of HIV replication (NL-RLuc reporter virus in MT-2 cells); type: cell-based; conditions: Renilla, NL43, 120 h, read-out: Activity
Method in brief: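 MT-2 cells infected with NL4-3-derived NL-RLuc reporter virus (Renilla luciferase replacing part of nef) with serial compound dilutions, RPMI 1640 + 10% FBS; 5 days. Growth by luciferase; EC50 from median effect equation, ≥2 experiments.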

`Cc1nc(C)c([C@H](OC(C)(C)C)C(=O)O)c(N2CCC(C)(C)CC2)c1-c1ccc(CCc2ccc(F)cc2)cc1` [Example 85, (S)-2-(tert-Butoxy)-2-(4-(4,4-dimethylpiperidin-1-yl)-5-(4-(4-fluorophenethyl)-phenyl)-2,6-dimethylpyridin-3-yl)acetic acid] and `Cc1nc(C)c([C@H](OC(C)(C)C)C(=O)O)c(N2CCC(C)(C)CC2)c1-c1ccc(CCCc2ccc(F)cc2)cc1` [Example 52, (S)-2-(tert-Butoxy)-2-(4-(4,4-dimethylpiperidin-1-yl)-5-(4-(3-(4-fluorophenyl)propyl)phenyl)-2,6-dimethylpyridin-3-yl)acetic acid] cannot be ordered by EC50: less than 0.1 µM for the first, less than 0.1 µM for the second.

`Cc1cc(CNC(=O)c2ccc(-c3c(C)nc(C)c([C@H](OC(C)(C)C)C(=O)O)c3N3CCC(C)(C)CC3)cc2)ccc1F` [Example 1, (S)-2-(tert-Butoxy)-2-(4-(4,4-dimethylpiperidin-1-yl)-5-(4-((4-fluoro-3-methylbenzyl)carbamoyl)phenyl)-2,6-dimethylpyridin-3-yl)acetic acid] and `CCOc1cc(F)cc(F)c1CNC(=O)c1ccc(-c2c(C)nc(C)c([C@H](OC(C)(C)C)C(=O)O)c2N2CCC(C)(C)CC2)cc1` [Example 67, (S)-2-(tert-Butoxy)-2-(4-(4,4-dimethylpiperidin-1-yl)-5-(4-((2-ethoxy-4,6-difluorobenzyl)carbamoyl)phenyl)-2,6-dimethylpyridin-3-yl)acetic acid] cannot be ordered by EC50: less than 0.1 µM for the first, less than 0.1 µM for the second.

`Cc1nc(C)c([C@H](OC(C)(C)C)C(=O)O)c(N2CCC(C)(C)CC2)c1-c1ccc(/S(CCc2ccc(F)cc2)=N/C(=O)OC(C)(C)C)cc1` (stereo partly drawn) [Example 80, (2S)-2-(tert-Butoxy)-2-(5-(4-((E)-N-(tert-butoxycarbonyl)-S-(4-fluorophenethyl)sulfinimidoyl)phenyl)-4-(4,4-dimethylpiperidin-1-yl)-2,6-dimethylpyridin-3-yl)acetic acid] and `Cc1nc(C)c([C@H](OC(C)(C)C)C(=O)O)c(N2CCC(C)(C)CC2)c1-c1ccc(N(C)CCc2ccc(F)cc2)cc1` [Example 76, (S)-2-(tert-Butoxy)-2-(4-(4,4-dimethylpiperidin-1-yl)-5-(4-((4-fluorophenethyl)(methyl)amino)phenyl)-2,6-dimethylpyridin-3-yl)acetic acid] cannot be ordered by EC50: less than 0.1 µM for the first, less than 0.1 µM for the second.

`CCCOc1ccc(-c2ccc(-c3c(C)nc(C)c([C@H](OC(C)(C)C)C(=O)O)c3N3CCC(C)(C)CC3)cc2)cc1` [Example 9, (S)-2-(tert-Butoxy)-2-(4-(4,4-dimethylpiperidin-1-yl)-2,6-dimethyl-5-(4′-propoxy-[1,1′-biphenyl]-4-yl)pyridin-3-yl)acetic acid] and `Cc1nc(C)c([C@H](OC(C)(C)C)C(=O)O)c(N2CCC(C)(C)CC2)c1-c1ccc(-c2ccc(OC(C)C)cc2)cc1` [Example 10, (S)-2-(tert-Butoxy)-2-(4-(4,4-dimethylpiperidin-1-yl)-5-(4′-isopropoxy-[1,1′-biphenyl]-4-yl)-2,6-dimethylpyridin-3-yl)acetic acid] cannot be ordered by EC50: less than 0.1 µM for the first, less than 0.1 µM for the second.

`Cc1nc(C)c([C@H](OC(C)(C)C)C(=O)O)c(N2CCC(C)(C)CC2)c1-c1ccc(C=O)cc1` [Example 83, (S)-2-(tert-Butoxy)-2-(4-(4,4-dimethylpiperidin-1-yl)-5-(4-formylphenyl)-2,6-dimethylpyridin-3-yl)acetic acid] and `Cc1nc(C)c([C@H](OC(C)(C)C)C(=O)O)c(N2CCC(C)(C)CC2)c1-c1ccc(CC(C)C)cc1` [Example 20, (S)-2-(tert-Butoxy)-2-(4-(4,4-dimethylpiperidin-1-yl)-5-(4-isobutylphenyl)-2,6-dimethylpyridin-3-yl)acetic acid] cannot be ordered by EC50: less than 0.1 µM for the first, less than 0.1 µM for the second.

`Cc1nc(C)c([C@H](OC(C)(C)C)C(=O)O)c(N2CCC(C)(C)CC2)c1-c1ccc(N(CCO)CCc2ccc(F)cc2)cc1` [Example 77, (S)-2-(tert-Butoxy)-2-(4-(4,4-dimethylpiperidin-1-yl)-5-(4-((4-fluorophenethyl)(2-hydroxyethyl)amino)phenyl)-2,6-dimethylpyridin-3-yl)acetic acid] and `Cc1nc(C)c([C@H](OC(C)(C)C)C(=O)O)c(N2CCC(C)(C)CC2)c1-c1ccc(-c2ccccn2)cc1` [Example 13, (S)-2-(tert-butoxy)-2-(4-(4,4-dimethylpiperidin-1-yl)-2,6-dimethyl-5-(4-(pyridin-2-yl)phenyl)pyridin-3-yl)acetic acid] cannot be ordered by EC50: less than 0.1 µM for the first, less than 0.1 µM for the second.

`Cc1nc(C)c([C@H](OC(C)(C)C)C(=O)O)c(N2CCC(C)(C)CC2)c1-c1cccc(-c2nnn[nH]2)c1` [Example 47, (S)-2-(5-(3-(1H-Tetrazol-5-yl)phenyl)-4-(4,4-dimethylpiperidin-1-yl)-2,6-dimethylpyridin-3-yl)-2-(tert-butoxy)acetic acid] was tested, and the EC50 was greater than 1 µM.

same assay, conditions: Renilla, NL43, 120 h, read-out: EC50 μM

Going from `Cc1cc(CNC(=O)c2ccc(-c3c(C)nc(C)c([C@H](OC(C)(C)C)C(=O)O)c3N3CCC(C)(C)CC3)cc2)ccc1F` [Example 1, (S)-2-(tert-Butoxy)-2-(4-(4,4-dimethylpiperidin-1-yl)-5-(4-((4-fluoro-3-methylbenzyl)carbamoyl)phenyl)-2,6-dimethylpyridin-3-yl)acetic acid] to `Cc1nc(C)c([C@H](OC(C)(C)C)C(=O)O)c(N2CCC(C)(C)CC2)c1-c1ccc(CC(C)C)cc1` [Example 20, (S)-2-(tert-Butoxy)-2-(4-(4,4-dimethylpiperidin-1-yl)-5-(4-isobutylphenyl)-2,6-dimethylpyridin-3-yl)acetic acid], the EC50 rises from 0.007 µM to 0.161 µM (23-fold). The first is the more potent here.
